This note sets out measurements from patent US9597318B2, “2-oxothiazole compounds and method of using same for chronic inflammatory disorders” (Avexxin AS, priority 2009, dated 2017).

Read-outs that look alike come from different tables or passages of the source.

For one assay, the target named is group IVa PLA2 (cPLA2) (Homo sapiens (Human), UniProt P47712). Description: In vitro cPLA2 enzyme activity assay. The assay is classed as biochemical. On the procedure: Some of the compounds above were tested using an in vitro cPLA2 enzyme activity assay.
group IVa PLA2 (cPLA2), sequence (P47712 whole entry): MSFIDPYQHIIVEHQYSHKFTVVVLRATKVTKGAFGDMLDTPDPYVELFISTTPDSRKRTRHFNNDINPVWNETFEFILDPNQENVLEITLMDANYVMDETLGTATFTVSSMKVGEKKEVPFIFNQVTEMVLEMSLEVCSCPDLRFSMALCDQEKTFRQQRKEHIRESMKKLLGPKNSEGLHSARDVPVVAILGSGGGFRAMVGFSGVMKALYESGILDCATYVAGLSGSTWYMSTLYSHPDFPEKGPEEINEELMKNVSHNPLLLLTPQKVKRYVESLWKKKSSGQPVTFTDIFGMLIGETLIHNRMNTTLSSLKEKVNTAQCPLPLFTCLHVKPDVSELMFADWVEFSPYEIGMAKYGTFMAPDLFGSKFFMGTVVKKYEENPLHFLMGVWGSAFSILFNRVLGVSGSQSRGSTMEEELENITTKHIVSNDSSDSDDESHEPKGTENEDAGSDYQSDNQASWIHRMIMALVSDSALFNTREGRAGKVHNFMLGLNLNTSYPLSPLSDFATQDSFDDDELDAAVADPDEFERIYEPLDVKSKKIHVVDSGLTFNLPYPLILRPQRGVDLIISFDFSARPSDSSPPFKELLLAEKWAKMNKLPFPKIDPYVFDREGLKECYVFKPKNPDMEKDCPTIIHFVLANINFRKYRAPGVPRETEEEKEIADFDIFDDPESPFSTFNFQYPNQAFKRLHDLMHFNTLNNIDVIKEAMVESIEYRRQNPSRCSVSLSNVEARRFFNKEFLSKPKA
Assay for cPLA2 activity was performed by the use of sonicated vesicles of 1-palmitoyl-2-arachidonoyl-sn-glycerol-3-phosphorylcholine (100 μM) containing 100,000 cpm of 1-palmitoyl-2-[1 14C]arachidonoylsn-glycerol-3-phosphorylcholine in 100 mM Hepes, pH 7.5, 80 μM Ca2, 2 mM dithiothreitol, and 0.1 mg/ml BSA as described. Following a […] incubation at 37° C., the reaction was terminated (derived from Wijkander et al). The lower phase was separated by thin layer chromatography, and the spot corresponding to free [1-14C]arachidonic acid was visualized by digital imaging and quantified with a PhosphorImager (Fuji Instruments). The source of cPLA2 enzyme was recombinant overexpression of the human gene for group IVa PLA2 in baculovirus insect cell expression system, as described in Abdullah et al. • Wijkander, J., and Sundler, R. (1991) Eur. J. Biochem. 202, 873-880 • Abdullah, K., et al. (1995) Human cytosolic phospholipase A2 expressed in insect cells is extensively phosphorylated on Ser-505. Biochim Biophys Acta. 1995 May 11; 1244(1):157-64.

For a further assay, the system named is SW982 cells. The assay can be described thus: AA release assay in SW982 cells, IL-1B stimulation. The assay is classed as cell-based. To be noted: Homo sapiens. Here is the method:
(§1) The Cell Culture SW982 model cell line at a confluent or spheroid state (Wada Y, 2005) was used since gene expression and generation of proinflammatory cytokines resemble RA-derived synovial fibroblast-like cells.
[…] […] IC50 is evaluated from dose-response inhibitions curves.

A further assay deals with PGE2. Description: PGE2-assay (EIA kit detection). Type of assay: cell-based. Here is the method:
as §1
Samples and controls were slowly thawed and diluted (between 1:1 and 1:2500) in the standard diluent. The maximal dilution was 1:10 for one step. That is why several intermediate dilutions were prepared. In the beginning all values were determined from duplicates. After having minimized technical errors, samples were only analyzed as individuals. All further steps, except for some minor corrections, were performed according to the manufacturer's recommendations as can be found in the manual of the EIA kit. In order to optimize the results, the incubation time of the alkaline phosphatase substrate was prolonged by 15 minutes. During the incubation, the plates were kept in the dark. An example of the arrangements of the samples and controls is illustrated in the appendix. The read-out was carried out with a Multiscan plate reader (Ascent Labsystems) at wavelengths of 414 and 595 nm after 10 seconds shaking at 120 rpm. The corresponding software to obtain the data was the Ascent software for Multiscan, Version 2.4.1.
Data were processed using Microsoft Office Excel 2003 and SigmaPlot 10.0.

The mark [1] stands for this setting: recombinant human group IVa PLA2, vesicle assay, 37° C., read-out: Enzyme Assay IC 50.
The mark [2] stands for this setting: 1 h preincubation, IL-1B stimulation, time not given.
The mark [3] stands for this setting: read-out: cPLA2 in vitro assay IC50.

Usually inhibition stands for the percentage by which the read-out fell short of the control.

Take `O=C(CCCCc1ccccc1)c1nccs1` [GK147, 5-Phenyl-1-(thiazol-2-yl)pentan-1-one]: the IC50 at group IVa PLA2 (cPLA2) (setting [1]) is 3.05 µM.
In the assay on SW982 cells (setting [2]), `CCCCCCOc1ccc(CCC(=O)c2nccs2)cc1` [GK150, 3-(4-(Hexyloxy)phenyl)-1-(thiazol-2-yl)propan-1-one] returned an IC50 of 5.8 µM.
For the molecule `CCOC(=O)c1csc(C(=O)CCCCc2ccccc2)n1` [GK152, Ethyl 2-(5-phenylpentanoyl)thiazole-4-carboxylate], the inhibition at 0.1 µM with PGE2 (0.1 uM) was determined as 41%. In the assay with PGE2, this molecule displayed an inhibition at 3 µM of 38%, an inhibition at 10 µM of 30% and an inhibition at 30 µM of 31%. Further, the IC50 at group IVa PLA2 (cPLA2) (setting [3]) is above 5 µM. The molecule further returned an IC50 in the assay on SW982 cells ((2 h)) of 7.4 µM. The IC50 with SW982 cells ((4 h)) is above 25 µM.
For `CCCCCCCCc1ccc(OCCCC(=O)c2nccs2)cc1` [GK154, 4-(4-Octylphenoxy)-1-(thiazol-2-yl)butan-1-one], the IC50 on group IVa PLA2 (cPLA2) (setting [1]) came out at 3.65 µM.
The same measure, in the same setting: for `CCCCCCOc1ccc(CCCC(F)C(=O)c2nccs2)cc1` (stereo not drawn) [GK156, 2-Fluoro-5-(4-(hexyloxy)phenyl)-1-(thiazol-2-yl)pentan-1-one] the value was 3.7 µM.
`O=C(CCCCc1ccccc1)c1nc2ccccc2s1` [GK159]: in the assay on PGE2 (0.3 uM), the inhibition at 0.3 µM came out at 76%. At 3 µM the inhibition in the assay on PGE2 was 18%. Moreover, in the assay on PGE2, the inhibition at 10 µM came out at 23%. The molecule further came in with an inhibition at 30 µM with PGE2 of 10%. The values for the IC50 on group IVa PLA2 (cPLA2) (setting [3]), with SW982 cells ((2 h)) and with SW982 cells ((4 h)) were above 5 µM, below 2 µM and around 25 µM, respectively.
In the assay with PGE2, `CCC(=O)c1nc(C(=O)O)cs1` [GK160] had an inhibition at 10 µM of 12%. Further, the inhibition at 30 µM in the assay with PGE2 was 30%. The figures for the IC50 on group IVa PLA2 (cPLA2) (setting [3]) and in the assay on SW982 cells (setting [2]) were 7.2 µM and 4.9 µM, respectively.
Consider `O=C(CCCCc1ccc2ccccc2c1)c1nc2ccccc2s1` [GK181], for which, in the assay with PGE2, 10 µM produced 16.3% inhibition and testing at 30 µM gave an inhibition of 22.5%. The same molecule gave an IC50 with SW982 cells (setting [2]) of 1.4 µM.
Turning to `CCc1ccc(OCC(=O)c2nccs2)cc1` [GK185], the IC50 turned out to be 2 µM at group IVa PLA2 (cPLA2) (setting [3]) and 2.8 µM in the assay on SW982 cells (setting [2]).
